Source: PMC8251916 (Chemistry (Weinheim an Der Bergstrasse, Germany), 2021)
Like-named read-outs stand apart in the source and are kept apart here.

Legend:
[1] = tested on: F10T (DNA, hairpin, hexaethylene glycol (HEG) linker between 10 and 11) TATAGCTATATATAGCTATA; assay: FRET melting; settings: 10 mM K+, 90 mM Li+; 10 mM Li cacodylate; 1 µM ligand, 200 nM DNA
[2] = tested on: T. brucei; set-up: method as in earlier work; settings: typical G4 interactive compounds; ref 6b; cited from earlier work
[3] = tested on: Febr1T-K+ (T. brucei G-quadruplex); assay: FRET melting assay, T. brucei G4; format: binding; settings: 200 nM DNA, PIPER and 3 not reliable (spectral overlap)
Method: (§1) With the library in hand, we began our investigation into G4 stabilization by conducting a Förster resonance energy transfer (FRET) melting assay to assess DNA stabilization using the procedure outlined by De Cian et. al. ^[13] […] The sequences examined (at 200 nM) were the human telomeric G4 in potassium buffer (F21T‐K^+, mixed parallel/hybrid G4) ^[14] and sodium buffer (F21T‐Na^+, antiparallel G4), ^[15] the c‐Myc promoter G‐quadruplex (FmycT‐K^+, parallel G4), ^[16] a polymorphic G4 found in T. brucei (FEBR1T‐K^+, a mixed G4 topology), ^[6b] and a hairpin duplex DNA sequence (F10T‐K^+). Together, these sequences represent targets for therapeutic intervention to treat parasitic infections, ^[6b] or cancer. ^[1b] The topology of each sequence was confirmed independently via circular dichroism (CD, Figure S1). […]
(§2) FRET melting assays were performed to assess ligand affinity for duplex and G-quadruplex
(§3) DNA. Briefly, oligonucleotides of interest were obtained labelled at the 5’ and 3’ ends with FAM (a fluorescence donor) and TAMRA (a fluorescence quencher), respectively. In the folded state, proximity of the donor and quencher result in no observed fluorescence from FAM, since energy is transferred non-radiatively to TAMRA by FRET. As the temperature is raised and the secondary structure denatures, the fluorophores move further apart and the fluorescence signal increases. From the resulting curve, the characteristic melting temperature (Tmax, also referred to as Tm) is defined as the temperature which corresponds to the maxima of the first derivative of the normalised fluorescence signal. The change in melting temperature (ΔTm) induced by the presence of a small molecule ligand provides an indication of the ligand’s ability to stabilise the DNA structure. FRET experiments were performed according to the […]
(§4) procedure reported by De Cian and co-workers[S3] on a Stratagene MX3005P. The method consisted of holding at 25 °C for 5 min, before heating at 1 °C/min to 96 °C in 1 °C increments, […]

[4] = tested on: FmycT-K+ (c-Myc promoter G-quadruplex, parallel); assay: FRET melting assay, c-Myc promoter G4; format: binding; settings: 200 nM DNA, PIPER and 3 not reliable (spectral overlap)
Method: as §1, §2, §3, §4

[5] = tested on: F21T (DNA, G4) GGGTTAGGGTTAGGGTTAGGG; assay: FRET melting; settings: 10 mM K+, 90 mM Li+, 10 mM Li cacodylate, 200 nM DNA
[6] = tested on: MRC5 non-tumoral cells; assay: Cytotoxicity, alamarBlue assay, MRC5; format: cell-based, human; settings: Homo sapiens, MRC5, 72 h, 72 h incubation, alamarBlue fluorescence; read-out: absolute EC50 MRC5
Method: (§5) Doxorubicin, suramin and miltefosine were used as control compounds.[ ^6b , ^9 ] After incubation with varied concentrations of the compounds for 72 h, cell viability was measured using either an alamarBlue™ assay (for MRC5, HeLa and T. brucei) or MTT assay (for L. major). Absolute EC50 values and selectivity indexes were then calculated from dose‐response curves (Table 2 and S14). […]
(§6) Cell culture reagents were purchased from Thermo Fisher Scientific (Waltham, MA, USA) and used as-is. The Dulbecco’s Minimal Essential Medium (DMEM) formulation contained either high glucose (4.5 g/L, catalogue number: 10569) or low glucose (1 g/L, catalogue number:
(§7) 10567). RPMI-1640 was provided without sodium pyruvate and with L-glutamine (catalogue number: 11875). Phosphate Buffered Saline (PBS) contained NaCl (9 g/L), KH2PO4 (144 mg/L) and Na2HPO4-7.H2O (795 mg/L, catalogue number: 10010049). TrypLE Express™ was provided with EDTA (458 mg/L) and without Phenol Red (catalogue number: 12604021).
(§8) MRC-5 cells (human lung fibroblasts) were grown in monolayer (37 °C, 5 % CO2 and 100 % humidity) in DMEM medium (1 g/L glucose), supplemented with 10% heat-inactivated Fetal Bovine Serum (hiFBS), 2 mM L-glutamine, 100 U / mL penicillin and […]
(§9) streptomycin. […]
(§10) Cells were cultured according to ATCC recommendations and were used for the experiments while in the exponential growth phase. […]
(§11) Cytotoxicity was measured through the alamarBlue® assay (Thermo Fisher Scientific).[S6,S13] Briefly, 5×10^3 MRC-5 or HeLa cells were seeded in 96-wells plates (100 µL / well) in the presence of increasing concentrations of compound. After 72 hrs of incubation at 37 °C, 20 µL of alamarBlue® solution (110 ng / ml) was added to each well and cells were reincubated for 4 hrs at 37 °C. Then, 50 µL of 3 % SDS were added to each well. The plate was incubated at 37 °C for an extra hour and then analysed by fluorescence with an Infinite F200 plate reader (TECAN Austria, GmbH). The excitation wavelength was fixed at 550 nm and the emission wavelength at 590 nm. The results are expressed as the concentration of compound that reduces

[7] = tested on: HeLa cervical carcinoma cells; assay: Cytotoxicity, alamarBlue assay, HeLa; format: cell-based, human; settings: Homo sapiens, HeLa; 72 h incubation, alamarBlue fluorescence; read-out: absolute EC50 HeLa
Method: as §5, §6, §7
MRC-5 cells (human lung fibroblasts) were grown in monolayer (37 °C, 5 % CO2 and 100 % humidity) in DMEM medium (1 g/L glucose), supplemented with 10% heat-inactivated Fetal Bovine Serum (hiFBS), 2 mM L-glutamine, 100 U / mL penicillin and […] streptomycin. HeLa (Human cervical carcinoma cell line) cells were maintained at 37 °C and 5 % CO2 in high glucose DMEM (4.5 g / L) supplemented with 10% hiFBS, 100 U / ml penicillin, […] streptomycin, 2 mM L-glutamine and non-essential aminoacids (1X).
as §10, §11

[8] = tested on: F21T-K+ (human telomeric G-quadruplex, mixed parallel/hybrid); assay: FRET melting assay, human telomeric G4 in potassium buffer; format: binding; settings: 200 nM DNA, PIPER and 3 not reliable (spectral overlap)
Method: as §1, §2, §3, §4

[9] = tested on: F21T-Na+ (human telomeric G-quadruplex, antiparallel); assay: FRET melting assay, human telomeric G4 in sodium buffer; format: binding; settings: 200 nM DNA, PIPER and 3 not reliable (spectral overlap)
Method: as §1, §2, §3, §4

[10] = tested on: T. brucei; assay: Trypanocidal activity, alamarBlue assay; format: cell-based; settings: Trypanosoma brucei; 72 h incubation, alamarBlue fluorescence; read-out: absolute EC50 T. brucei
Method: as §5, §6, §7, §8, §9, §10
hiFBS. Parasites were split every other day and maintained in their experimental growth phase (below 2 million parasites per mL).
as §11

[11] = tested on: L. major; assay: Leishmaniacidal activity, MTT assay; format: cell-based; settings: Leishmania major; 72 h incubation, MTT absorbance; read-out: absolute EC50 L. major
Method: Doxorubicin, suramin and miltefosine were used as control compounds.[ ^6b , ^9 ] After incubation with varied concentrations of the compounds for 72 h, cell viability was measured using either an alamarBlue™ assay (for MRC5, HeLa and T. brucei) or MTT assay (for L. major). Absolute EC50 values and selectivity indexes were then calculated from dose‐response curves (Table 2 and S14).
Invitrogen). L. major promastigotes (MHOM/IL/80/Friedlin) were cultured at 28 °C, 5 % CO2 in modified RPMI-1640 medium (Thermo Fisher Scientific, Waltham, MA, USA) with 10% hiFBS. Parasites were split every other day and maintained in their experimental growth phase (below 2 million parasites per mL). […]
The results are expressed as the concentration of compound that reduces cell growth by 50 % versus untreated control cells (EC50) using GraphPad Prism 7 (GraphPad Software) to fit the data to a sigmoidal curve. Data are presented as the average of three independent measurements all conducted in triplicate conditions. […]
The leishmaniacidal activity of the compounds on promastigotes L. major (MHOM/IL/80/Friedlin) was carried out as previously described.[S14] Briefly, 4 × 10^6 / mL promastigotes were incubated for 72 h at 28 °C in 96-well plates (50 µL/well) in the presence of increasing concentration of compounds. Cell proliferation was determined using an MTT-based assay (Sigma-Aldrich). Thus, after the 72 h incubation, 10 µL of MTT (5 mg/ml) were added to each well and parasites were reincubated for 4 hrs at 28 °C. Then, 50 µL of 20 % SDS were added to each well. The plate was then incubated at 37°C for 4-16 hrs and analysed using an Infinite F200 plate reader (TECAN Austria, GmbH). The absorbance was measured […]
at a wavelength of 540 nm and the EC50 was calculated as described above. Data are presented as the average of three independent measurements, all conducted in triplicate conditions. […]

[12] = tested on: F10T-K+ (hairpin duplex DNA); assay: FRET melting assay, hairpin duplex DNA; format: binding; settings: 200 nM DNA, PIPER and 3 not reliable (spectral overlap)
Method: as §1, §2, §3, §4

[13] = tested on: FMycT (DNA, G4) TTGAGGGTGGGTAGGGTGGGTAA; assay: FRET melting; settings: 1 mM K+, 99 mM Li+; 10 mM Li cacodylate; 1 µM ligand, 200 nM DNA
[14] = tested on: Febr1T (DNA, G4) GGGCAGGGGGTGATGGGGAGGAGCCAGGG; assay: FRET melting; settings: 10 mM K+, 90 mM Li+; 10 mM Li cacodylate; 1 µM ligand, 200 nM DNA

Which ΔTm [1] does the source give for `C[n+]1ccc(-c2c3nc(c(-c4cc[n+](C)cc4)c4ccc([nH]4)c(-c4cc[n+](C)cc4)c4nc(c(-c5cc[n+](C)cc5)c5ccc2[nH]5)C=C4)C=C3)cc1` here?
Its ΔTm is 9 ± 1 °C.

Which results are given for `CN(C)c1ccc(Nc2c3ccc(NC(=O)CCN4CCCC4)cc3nc3cc(NC(=O)CCN4CCCC4)ccc23)cc1` [BRACO‐19]?
EC50 [2]: 7.8 µM; selectivity index (SI) T. brucei over MRC5 [2]: 1.5

With `CN1CCN(CCCN2C(=O)c3ccc(-c4ccc5c(c4)C(=O)N(CCCN4CCN(C)CC4)C5=O)cc3C2=O)CC1` [Compound 4] as the compound, how does the “ΔTm Febr1T-K+” value ([3]; 10 µM ligand) read?
Its value is 3 ± 1 °C.

What about the “ΔTm FmycT-K+” value ([4]; 10 µM ligand) of the same compound?
Its value is 2 ± 1 °C.

And the ΔTm ([5]; 10 µM ligand)?
Its ΔTm is 1 ± 1 °C.

What about the EC50 [6] of the same compound?
The EC50 was over 100 µM.

And the EC50 [7]?
The EC50 was over 100 µM.

What about the “ΔTm F21T-K+” value ([8]; 10 µM ligand) of the same compound?
Its value is 1 ± 1 °C.

And the “ΔTm F21T-Na+” value ([9]; 10 µM ligand)?
Its value is -2 ± 2 °C.

What about the EC50 [10] of the same compound?
Its EC50 is 57 ± 10 µM.

What about the EC50 [11] of the same compound?
The EC50 was over 100 µM.

What about the “ΔTm F10T-K+” value ([12]; 10 µM ligand) of the same compound?
The value was 0 ± 1 °C.

Which results are given for `NCCOc1cc(C(=O)Nc2cc(OCCN)c3ccccc3n2)nc(C(=O)Nc2cc(OCCN)c3ccccc3n2)c1` [Pyridostatin, reference compound]?
ΔTm Febr1T-K+ ([3]; 1 µM ligand): 29 ± 2 °C; ΔTm FmycT-K+ ([4]; 1 µM ligand): 20 ± 3 °C; ΔTm [13]: 20 ± 3 °C; ΔTm ([5]; 1 µM ligand): 34 ± 1 °C; ΔTm [14]: 29 ± 2 °C; ΔTm F21T-K+ ([8]; 1 µM ligand): 34 ± 1 °C; EC50 [2]: 5.5 µM; ΔTm F21T-Na+ ([9]; 1 µM ligand): 36 ± 2 °C; ΔTm F10T-K+ ([12]; 1 µM ligand): 1 ± 1 °C
